Assay results reported in patent US20240301409A1, “Chemically Modified Small Activating RNA” (RACTIGEN THERAPEUTICS, priority 2021, published 2024).
Oligonucleotides are written 5' to 3', each unit as a sugar letter and its base; * is a phosphorothioate linkage, no mark a phosphodiester; rarer units and linkages stand in square brackets, end groups in braces. Plain capitals give the bases only. m = 2'-O-methyl; r = 2'-OH (RNA); f = 2'-fluoro

Columns and labels:
[1] = test system: Ku-7-LG cells; assay: Cellular proliferation assay (CCK8) in Ku-7-LG cells; format: cell-based, human; conditions: 10 nM, 72 hours
Procedure: Ku-7-LG cells were transfected with the indicated saRNA at 10 nM for 3 days. […] The closer the luciferase value is to the control group, the lower the probability of off-target effects of saRNA is. Control and dsCon2 were blank transfection and double-stranded scramble RNA transfection, respectively. The value of the ordinate represents the mean±SD of two repeated treatments.
(§1) After the transfection, the number of viable cells was detected with a CCK8 kit, and plotted as the percentage of the blank control treatment group. […] A transfection sample without oligonucleotide served as a blank control. Non-specific duplex (dsCon) transfected sample served as a negative control. Data are presented as mean±SD of at least two independent experiments. The values below the dashed line indicate stronger growth inhibitory activity compared to duplex Rag1-40 without chemical modification.
(§2) Human bladder cancer cells Ku-7-LG (ATCC), J82 (ATCC) and T24 (ATCC) were cultured in McCoy medium (Gibco) comprising 10% calf serum (Sigma-Aldrich) and 1% penicillin/Streptomycin (Gibco). Cells were cultured at 37° C. under 5% CO2. Ku-7-LG, J82 and T24 cells were plated into 12-well plates at 10×10^4 cells per well, transfected with the small RNA at a concentration of 10 nM (unless otherwise specified) for three days, using RNAiMax (Invitrogen, Carlsbad, CA) according to the manufacturer's instructions. Two replicate wells were set for each treatment.
(§3) Cells were plated in a 96-well plate at 2˜4×10^3 cells/well, cultured overnight, and transfected with the oligonucleotide duplexes. Three days after transfection, CCK8 (Dojindo) was used to detect cellular proliferation following manufacturer's instructions. The experimental steps are briefly described as follows: 10 μL of CCK8 solution was added to each well, incubated at 37° C. for 1 hour, and then the absorbance at 450 nm was measured using a microplate reader.
(§4) It is known that p21 induction by saRNA is that a variety of tumor suppressor factors such as p21 protein suppress the proliferation of cancer cells. To evaluate the effect of chemically modified saRNAs on the function of cancer cells, cells (Ku-7-LG and T24) were transfected with 10 nM unmodified and modified saRNAs for 72 hours, and the cellular proliferation was determined by CCK8. […] Furthermore, there was a correlation between RNA activating activity (FIGS. 7A-7B) and suppression of cellular proliferation activity (FIGS. 8A-8B). Strong p21 activators are usually also strong cytostatics.

[2] = test system: T24 cells; assay: Cellular proliferation assay (CCK8) in T24 cells, alone and combined with Mitomycin C or valrubicin; format: cell-based, human; conditions: T24 cells, 10 nM, 72 hours, CCK8
Excerpt: as §1
T24 cells were transfected with RAG1-40-31 at concentrations of 0.1, 0.5, 1, 5, 10, 25 and 50 nM for 24 hours, and then Mitomycin C was added at concentrations of 1, 10, 100, 1000 and 10000 nM. The combined treatment was carried out with concentrations in pairs. After treatment, the cellular proliferation was detected by CCK8 kit. FIGS. 16A-16B show the relative proliferation proportion of T24 cells after the combined treatment with chemically modified saRNA RAG1-40-31 and valrubicin. […] Control and DMSO are the blank transfection control and the solvent for dilution control, respectively.
T24 cells were transfected with RAG1-40-31 at concentrations of 0.1, 0.5, 1, 5, 10, 25 and 50 nM for 24 hours, and then valrubicin at concentrations of 1, 10, 100, 1000 and 10000 nM was added. The combined treatment was carried out with concentrations in pairs. After treatment, the cellular proliferation was detected by CCK8 kit.
as §2, §3, §4

[3] = target: T1, RNase A (Bos taurus, UniProt P61823); assay: saRNA stability analysis in the presence of RNase A (agarose gel); conditions: incubation 0 to 96 hours
T1 sequence (P61823 27-150): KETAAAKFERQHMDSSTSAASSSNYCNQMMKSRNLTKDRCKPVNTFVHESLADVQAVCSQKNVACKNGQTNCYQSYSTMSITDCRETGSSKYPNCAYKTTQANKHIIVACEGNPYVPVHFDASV

[4] = test system: Rag1-40 target sequence in the 3′ UTR of firefly luciferase, COS-1 cells; assay: Analysis of off-target effects (pOff-Target dual luciferase reporter in COS-1 cells); conditions: lysed 48 hours after transfection, luciferase activity
[5] = test system: INF-α; assay: PBMC cytokine release assay, INF-α (ELISA); conditions: 10 nM, 24 hours; for immunostimulatory activity (INF-α) compared with Rag1-40, in words: PBMC
Procedure: Cells were treated with the indicated duplexes at a final concentration of 10 nM or lipopolysaccharide (LPS) as a positive control for 24 hours, respectively. The levels of INF-α and TNF-α in the cell supernatant were detected by ELISA kit. […] Data represent mean±SD of two independent experiments.
Human peripheral blood mononuclear cells (Allcells, Alameda, CA) were seeded in a 96-well microplate at a density of approximately 10×10^4 cells/well. Transfection of dsRNA was performed using RNAiMAX (Invitrogen, Carlsbad, CA) following manufacturer's instructions. Supernatants were collected 24 hours after transfection and immediately assayed for IFN-α and TNF-α production using ELISA kit (R&D Systems). Each treatment group was analyzed in triplicate.
To assess the immunostimulatory effect of chemically modified saRNAs, human peripheral blood mononuclear cells (PBMC) from healthy donors were incubated with the double-stranded saRNAs, and INF-α and TNF-α levels in the supernatant of treated cells after 24 hours were measured.

Row | Substance | suppression of cellular proliferation, in words [1] | suppression of cellular proliferation, in words [2] | degradation of duplex at 96 hours [3] | off-target effect compared to unmodified Rag1-40, in words [4] | immunostimulatory activity (INF-α) compared with Rag1-40, in words [5] | protein level of INF-α ([5]; PBMC supernatant) [pg/mL]
1 | Rag1-40-24: saRNA duplex: sense mCmCAACUCAUUCUCCAAG*U*C (SEQ ID NO 15); antisense fUactfUGGAGAAfUGAGfUfUGG*fC*A (SEQ ID NO 13) (sense CCAACUCAUUCUCCAAGUC; antisense UACTUGGAGAAUGAGUUGGCA; 2'-OMe, 2'-F, phosphorothioates, DNA residues; modified_base (1)..(2) (1,2)=2′-O-methyl(2′-OMe); modified_base (17)..(19) (17,18,19)=phosphorothioate (PS) backbone modification; modified_base (1)..(17) (1,2,9,13,14,17)=2′-fluoro; (1)..(21) (1,5,6,7,8,9,10,11,12,13,14,15,1,61,7,18,19,20, 21)=RNA; (2)..(4) (2,3,4)=DNA; modified_base (16)..(18) (16,17,18)=phosphorothioate (PS) backbone modification) | weakens the activity of the saRNA duplex to suppress cellular proliferation | weakens the activity of the saRNA duplex to suppress cellular proliferation | little or no signs of degradation | completely inhibited |  | 
2 | Rag1-40-9: saRNA duplex: sense fCfCAACUCAUUCUCCAAGfUfC (SEQ ID NO 14); antisense fUAfCfUfUGGAGAAfUGAGfUfUGGfCA (SEQ ID NO 6) (sense CCAACUCAUUCUCCAAGUC; antisense UACUUGGAGAAUGAGUUGGCA; 2'-F modifications; modified_base (1)..(19) (1,2,18,19)=2′-fluoro; modified_base (1)..(20) (1,3,4,5,12,16,17,20)=2′-fluoro) |  |  | little or no signs of degradation | mitigated or similar off-target effects | reduced immunostimulatory activity | 
3 | Rag1-40-27: saRNA duplex: sense fCfCAACUCAUUCUCCAAG*U*C (SEQ ID NO 16); antisense fUmAfCfUfUmGmGmAmGmAmAfUmGmAmGfUfUmGmGfCmA (SEQ ID NO 8) (sense fCfCrArArCrUrCrArUrUrCrUrCrCrArArG*rU*rC) | negatively affects proliferation suppression activity | negatively affects proliferation suppression activity | little or no signs of degradation | completely inhibited | reduced immunostimulatory activity | 
4 | Rag1-40-13: saRNA duplex: sense fCfCAACUCAUUCUCCAAGfUfC (SEQ ID NO 14); antisense UACUfUGGAGAAfUGAGUfUGG*fC*A (SEQ ID NO 10) (sense CCAACUCAUUCUCCAAGUC; antisense UACUUGGAGAAUGAGUUGGCA; 2'-F modifications, phosphorothioates; modified_base (1)..(19) (1,2,18,19)=2′-fluoro; modified_base (5)..(20) (5,12,17,20)=2′-fluoro; modified_base (19)..(21) (19,20,21)=phosphorothioate (PS) backbone modification) |  |  |  | mitigated or similar off-target effects | reduced immunostimulatory activity | 
5 | RAG1-IS-1: RNA duplex known to have strong immunostimulatory activity, positive control: S GUCAUCACACUGAAUACCAAU (SEQ ID NO 20), AS AUUGGUAUUCAGUGUGAUGACAC (SEQ ID NO 21) (listed as RNA, chemistry not given here) [reference compound] |  |  |  |  |  | 708
6 | Rag1-40-8: saRNA duplex: sense mCmCAACUCAUUCUCCAAGmUmC (SEQ ID NO 5); antisense fUactfUGGAGAAfUGAGfUfUGG*fC*A (SEQ ID NO 13) (sense CCAACUCAUUCUCCAAGUC; antisense UACTUGGAGAAUGAGUUGGCA; 2'-OMe, 2'-F, phosphorothioates, DNA residues; modified_base (1)..(19) (1,2,18,19)=2′-O-methyl(2′-OMe); modified_base (1)..(17) (1,2,9,13,14,17)=2′-fluoro; (1)..(21) (1,5,6,7,8,9,10,11,12,13,14,15,1,61,7,18,19,20, 21)=RNA; (2)..(4) (2,3,4)=DNA; modified_base (16)..(18) (16,17,18)=phosphorothioate (PS) backbone modification) | weakens the activity of the saRNA duplex to suppress cellular proliferation | weakens the activity of the saRNA duplex to suppress cellular proliferation | little or no signs of degradation | mitigated or similar off-target effects | reduced immunostimulatory activity | 
7 | Rag1-40-15: saRNA duplex: sense fCfCAACUCAUUCUCCAAGfUfC (SEQ ID NO 14); antisense U*A*fCfUfUGGAGAAfUGAGfUfUGG*fC*A (SEQ ID NO 12) (sense CCAACUCAUUCUCCAAGUC; antisense UACUUGGAGAAUGAGUUGGCA; 2'-F modifications, phosphorothioates; modified_base (1)..(19) (1,2,18,19)=2′-fluoro; modified_base (2)..(21) (2,3,19,20,21)=phosphorothioate (PS) backbone modification; modified_base (3)..(20) (3,4,5,12,16,17,20)=2′-fluoro) |  |  | little or no signs of degradation | mitigated or similar off-target effects | reduced immunostimulatory activity | 
8 | Rag1-40-5: saRNA duplex: sense mCmCAACUCAUUCUCCAAGmUmC (SEQ ID NO 5); antisense UACUfUGGAGAAfUGAGUfUGG*fC*A (SEQ ID NO 10) (sense CCAACUCAUUCUCCAAGUC; antisense UACUUGGAGAAUGAGUUGGCA; 2'-OMe, 2'-F, phosphorothioates; modified_base (1)..(19) (1,2,18,19)=2′-O-methyl(2′-OMe); modified_base (5)..(20) (5,12,17,20)=2′-fluoro; modified_base (19)..(21) (19,20,21)=phosphorothioate (PS) backbone modification) |  |  |  | completely inhibited | reduced immunostimulatory activity | 
